Test results: patent US5482967A, “Condensed heterocyclic compounds, their production and use” (Takeda Chemical Industries, Ltd., priority 1992, dated 1996)
Structures can show the parent of a compound that is named as a salt.

molecular target: substance P receptor (Homo sapiens, UniProt P25103); test: Radioligand receptor binding inhibitory assay using receptor from human lymphoblast cells (IM-9), 125I-BHSP; details: IM-9 receptor, 25° C., 30 minutes
Procedure: The method of A. Margaret et al. [Molecular Pharmacology 42, 458 (1992)] was modified and used. The receptor was prepared from human lymphoblast cells (IM-9). IM-9 cells were grown in 175 cm^2 tissue culture flasks (100 ml×10) at a density approximately 2×10^5 /ml of RPMI 1640 with L-glutamine, 10% (V/V) heat inactivated fetal calf serum, penicillin (100 u/ml), and streptomycin (100 μg/ml) at 37° C. in 5% CO2 /95% air for 3 days. IM-9 cells were obtained by centrifugation at 500×g for 5 minutes at 5° C. The pellet obtained was washed once with phosphate buffer (Flow Laboratories, CAT No. 28-103-05), homogenized using Polytron homogenizer (Kinematika, Germany) in 30 ml of 50 mM Tris-HCl buffer containing 120 mM NaCl, 5 mM KCl, 2 μg/ml phenylmethyl sulfonyl fluoride, and 1 mM ethylenediamine tetra-acetic acid and then centrifuged at 40,000×g for 20 minutes. The residue was washed twice with 30 ml of buffer described above, and preserved frozen (-80° C.).
The above specimen was suspended in a reaction buffer (50 mM Tris-HCl buffer (pH 7.4), 0.02% bovine serum albumin, 1 mM phenylmethylsulfonyl fluoride, 2 μg/ml chymostatin, 40 μg/ml bacitracin, 3 mM manganese chloride) at a protein concentration of 1.5 mg/ml and a 100 μl portion of the suspension was used in the reaction. After addition of the sample and 125I-BHSP (0.46 KBq), the reaction was conducted in 0.2 ml of reaction buffer at 25° C. for 30 minutes. The amount of nonspecific binding was determined by adding substance P at a final concentration of 2×10^-6 M. After the reaction, using a cell harvester (290PHD, Cambridge Technology, Inc., England), rapid filtration was carried out through a glass filter (GF/B, Whatman, U.S.A.) to stop the reaction. After washing three times with 250 μl of 50 mM Tris-HCl buffer (pH 7.4) containing 0.02% bovine serum albumin, the radioactivity remaining on the filter was measured with a gamma counter. Before use, the filter was immersed in 0.1% polyethyleneimine for 24 hours and air-dried.

Sequence of substance P receptor (P25103 whole entry): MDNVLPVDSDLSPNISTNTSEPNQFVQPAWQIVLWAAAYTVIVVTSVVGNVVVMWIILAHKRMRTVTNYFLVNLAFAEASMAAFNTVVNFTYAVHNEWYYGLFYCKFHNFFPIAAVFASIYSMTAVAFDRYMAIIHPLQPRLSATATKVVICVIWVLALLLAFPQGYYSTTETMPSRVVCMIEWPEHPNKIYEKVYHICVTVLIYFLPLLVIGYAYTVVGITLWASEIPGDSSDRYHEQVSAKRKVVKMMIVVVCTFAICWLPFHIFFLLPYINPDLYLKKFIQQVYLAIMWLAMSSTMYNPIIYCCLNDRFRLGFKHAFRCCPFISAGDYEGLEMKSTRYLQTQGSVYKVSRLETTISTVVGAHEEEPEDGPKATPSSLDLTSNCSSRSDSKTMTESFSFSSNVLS

| IC50 [nM] | SMILES |
| --- | --- |
| 3.4 | CN(Cc1cc(C(F)(F)F)cc(C(F)(F)F)c1)C(=O)c1c(-c2ccccc2)c2cc(Cl)ccc2c(=O)n1C [Example 174, N-[3,5-Bis(trifluoromethyl)benzyl]-6-chloro-1,2-dihydro-N,2-dimethyl-1-oxo-4-phenyl-3-isoquinolinecarboxamide] |
| 6.2 | Cc1cc(F)ccc1-c1c(C(=O)NCc2cc(C(F)(F)F)cc(C(F)(F)F)c2)n(C)c(=O)c2ccccc12 [Example 175, N-[3,5-Bis(trifluoromethyl)benzyl]-4-(4-fluoro-2-methylphenyl)-1,2-dihydro-2-methyl-1-oxo-3-isoquinolinecarboxamide] |
| 0.7 | Cc1cc(F)ccc1-c1c(C(=O)N(C)Cc2cc(C(F)(F)F)cc(C(F)(F)F)c2)n(C)c(=O)c2ccccc12 [Example 176, N-[3,5-Bis(trifluoromethyl)benzyl]-4-(4-fluoro-2-methylphenyl)-1,2-dihydro-N,2-dimethyl-1-oxo-3-isoquinolinecarboxamide] |
| 13 | CN(Cc1cc(C(F)(F)F)cc(C(F)(F)F)c1)C(=O)c1[nH]c(=O)c2ccc(Cl)cc2c1-c1ccccc1 [Example 177, N-[3,5-Bis(trifluoromethyl)benzyl]-6-chloro-1,2-dihydro-N-methyl-1-oxo-4-phenyl-3-isoquinolinecarboxamide] |
| 0.14 | CN(Cc1cc(C(F)(F)F)cc(C(F)(F)F)c1)C(=O)c1[nH]c(=O)c2ccccc2c1-c1ccc(F)cc1 [Example 178, N-[3,5-Bis(trifluoromethyl)benzyl]-4-(4-fluorophenyl)-1,2-dihydro-N-methyl-1-oxo-3-isoquinolinecarboxamide] |
| 80 | CCOC(=O)CCn1c(C(=O)NCc2cc(C(F)(F)F)cc(C(F)(F)F)c2)c(-c2ccccc2)c2ccccc2c1=O [Example 179, N-[3,5-Bis(trifluoromethyl)benzyl]-2-(2-ethoxycarbonylethyl)-1,2-dihydro-1-oxo-4-phenyl-3-isoquinolinecarboxamide] |
| 9.1 | CCOC(=O)CCn1c(C(=O)N(C)Cc2cc(C(F)(F)F)cc(C(F)(F)F)c2)c(-c2ccccc2)c2ccccc2c1=O [Example 180, N-[3,5-Bis(trifluoromethyl)benzyl]-2-(2-ethoxycarbonylethyl)-1,2-dihydro-N-methyl-1-oxo-4-phenyl-3-isoquinolinecarboxamide] |
| 31 | Cn1c(C(=O)NCc2cc(C(F)(F)F)cc(C(F)(F)F)c2)c(-c2ccccc2C(F)(F)F)c2ccccc2c1=O [Example 181, N-[3,5-Bis(trifluoromethyl)benzyl]-1,2-dihydro-2-methyl-1-oxo-4-(2-trifluoromethylphenyl)-3-isoquinolinecarboxamide] |
| 2 | CN(Cc1cc(C(F)(F)F)cc(C(F)(F)F)c1)C(=O)c1c(-c2ccccc2C(F)(F)F)c2ccccc2c(=O)n1C [Example 182, N-[3,5-Bis(trifluoromethyl)benzyl]-1,2-dihydro-N,2-dimethyl-1-oxo-4-(2-trifluoromethylphenyl)-3-isoquinolinecarboxamide] |
| 17 | CN(C)CCn1c(C(=O)N(C)Cc2cc(C(F)(F)F)cc(C(F)(F)F)c2)c(-c2ccccc2)c2ccccc2c1=O [Example 184, N-[3,5-Bis(trifluoromethyl)benzyl]-2-[2-(N,N-dimethylamino)ethyl]-1,2-dihydro-N-methyl-1-oxo-4-phenyl-3-isoquinolinecarboxamide hydrochloride] |
| 32 | Cn1c(C(=O)NCc2cc(C(F)(F)F)cc(C(F)(F)F)c2)c(-c2ccccc2)c2c(c1=O)CCCC2 [Example 185, N-[3,5-Bis(trifluoromethyl)benzyl]-1,2,5,6,7,8-hexahydro-2-methyl-1-oxo-4-phenyl-3-isoquinolinecarboxamide] |
| 1.8 | CN(Cc1cc(C(F)(F)F)cc(C(F)(F)F)c1)C(=O)c1c(-c2ccccc2)c2c(c(=O)n1C)CCCC2 [Example 186, N-[3,5-Bis(trifluoromethyl)benzyl]-1,2,5,6,7,8-hexahydro-N-2-dimethyl-1-oxo-4-phenyl-3-isoquinolinecarboxamide] |
| 1.4 | CCN(Cc1cc(C(F)(F)F)cc(C(F)(F)F)c1)C(=O)c1c(-c2ccccc2)c2ccccc2c(=O)n1C [Example 187, N-[3,5-Bis(trifluoromethyl)benzyl]-1,2-dihydro-N-ethyl-2-methyl-1-oxo-4-phenyl-3-isoquinolinecarboxamide] |
| 1.2 | CN(Cc1cc(C(F)(F)F)cc(C(F)(F)F)c1)C(=O)c1c(-c2ccc(F)cc2)c2c(F)cccc2c(=O)n1C [Example 188, N-[3,5-Bis(trifluoromethyl)benzyl]-5-fluoro-4-(4-fluorophenyl)-N,2-dimethyl-1-oxo-3-isoquinolinecarboxamide] |
| 1.7 | CCn1c(C(=O)N(C)Cc2cc(C(F)(F)F)cc(C(F)(F)F)c2)c(-c2ccccc2)c2ccccc2c1=O [Example 189, N-[3,5-Bis(trifluoromethyl)benzyl]-1,2-dihydro-2-ethyl-N-methyl-1-oxo-4-phenyl-3-isoquinolinecarboxamide] |
| 13 | COc1ccccc1CNCc1c(-c2ccccc2)c2cc(C)c(C)cc2c(=O)n1C [Example 190, 1,2-Dihydro-N-(2-methoxybenzyl)-2,6,7-trimethyl-1-oxo-4-phenyl-3-isoquinolinemethylamine] |
| 28 | Cc1cc(C)cc(CNCc2c(-c3ccccc3)c3cc(C)c(C)cc3c(=O)n2C)c1 [Example 191, N-(3,5-Dimethylbenzyl)-1,2-dihydro-2,6,7-trimethyl-1-oxo-4-phenyl-3-isoquinolinemethylamine] |
| 22 | COc1cc(CNCc2c(-c3ccccc3)c3ccccc3c(=O)n2C)cc(OC)c1OC [Example 205, 1,2-Dihydro-2-methyl-1-oxo-4-phenyl-N-(3,4,5-trimethoxybenzyl)-3-isoquinolinemethylamine] |
| 110 | COc1ccccc1CCOCc1c(-c2ccccc2)c2cc(C)c(C)cc2c(=O)n1C [Example 207, 1,2-Dihydro-2,6,7-trimethyl-1-oxo-4-phenyl-3-isoquinolinemethyl 2-(2-methoxyphenyl)ethyl ether] |
| 140 | Cc1cc(C)cc(COCc2c(-c3ccccc3)c3cc(C)c(C)cc3c(=O)n2C)c1 [Example 208, 1,2-Dihydro-2,6,7-trimethyl-1-oxo-4-phenyl-3-isoquinolinemethyl 3,5-dimethylbenzyl ether] |
| 23 | Cn1c(COCc2cc(C(F)(F)F)cc(C(F)(F)F)c2)c(-c2ccccc2)c2ccccc2c1=O [Example 211, 3,5-Bis(trifluoromethyl)benzyl 1,2-dihydro-2-methyl-1-oxo-4-phenyl-3-isoquinolinemethyl ether] |
| 30 | Cc1ccccc1-c1c(COCc2cc(C(F)(F)F)cc(C(F)(F)F)c2)n(C)c(=O)c2ccccc12 [Example 212, 3,5-Bis(trifluoromethyl)benzyl 1,2-dihydro-2-methyl-4-(2-methylphenyl)-1-oxo-3-isoquinoline methyl ether] |
| 62 | CCc1ccccc1-c1c(COCc2cc(C(F)(F)F)cc(C(F)(F)F)c2)n(C)c(=O)c2ccccc12 [Example 216, 3,5-Bis(trifluoromethyl)benzyl 4-(2-ethylphenyl)-1,2-dihydro-2-methyl-1-oxo-3-isoquinolinemethyl ether] |
| 23 | Cc1ccccc1-c1c(C[S+]([O-])Cc2cc(C(F)(F)F)cc(C(F)(F)F)c2)n(C)c(=O)c2ccccc12 (stereo not shown) [Example 218, 3,5-Bis(trifluoromethyl)benzyl 1,2-dihydro-2-methyl-4-(2-methylphenyl)-1-oxo-3-isoquinolinemethyl sulfoxide] |
| 130 | Cc1cc2c(-c3ccccc3)c(CC(=O)N(C)Cc3ccccc3Cl)n(C)c(=O)c2cc1C [Example 221, N-(2-Chlorobenzyl)-1,2-dihydro-N,2,6,7-tetramethyl-1-oxo-4-phenyl-3-isoquinolineacetamide] |
| 94 | Cc1cc2c(-c3ccccc3)c(C(=O)NCc3cc(C(F)(F)F)cc(C(F)(F)F)c3)n(CC(N)=O)c(=O)c2cc1C [Example 225, N-[3,5-Bis(trifluoromethyl)benzyl]-2-carbamoylmethyl-1,2-dihydro-6,7-dimethyl-1-oxo-4-phenyl-3-isoquinolinecarboxamide] |
| 44 | Cc1cc(C)cc(CNC2CCCn3c2c(-c2ccccc2)c2cc(C)c(C)cc2c3=O)c1 (stereo not shown) [Example 233, 1-(3,5-Dimethylbenzylamino)-1,2,3,4-tetrahydro-8,9-dimethyl-6-oxo-11-phenyl-6H-benzo[b]quinolizine hydrochloride] |
| 80 | COc1ccccc1CNC1CCCn2c1c(-c1ccccc1)c1ccccc1c2=O (stereo not shown) [Example 239, 1,2,3,4-Tetrahydro-1-(2-methoxybenzylamino)-6-oxo-11-phenyl-6H-benzo[b]quinolizine] |
